Measured values reported in ChEMBL document CHEMBL1201862, “PubChem BioAssay data set” (2004).
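48-hour exposure; five concentrations; linearly interpolated endpoints. Here, GI50 denotes the concentration required for 50% inhibition of growth.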 Activity calls are given as the source filed them. No stated cut-off is given here; in the data, active = GI50 up to about 1.1 µM and inactive = higher.

Legend:
Experiment in all cases: NCI-60 cell line screen, 48 h
[1] = test system: CAKI-1
[2] = test system: ACHN
[3] = test system: Malme-3M
[4] = test system: KM12
[5] = test system: PC-3
[6] = test system: MDA-MB-435
[7] = test system: K562
[8] = test system: LOX IMVI
[9] = test system: NCI-H226
[10] = test system: SF-539
[11] = test system: SR
[12] = test system: NCI/ADR-RES
[13] = test system: SK-MEL-2
[14] = test system: UO-31
[15] = test system: 786-0
[16] = test system: MDA-MB-231
[17] = test system: OVCAR-4
[18] = test system: RXF 393
[19] = test system: SNB-19

Row | SMILES | GI50 [1] | GI50 [2] | GI50 [3] | GI50 [4] | GI50 [5] | GI50 [6] | GI50 [7] | GI50 [8] | GI50 [9] | GI50 [10] | GI50 [11] | GI50 [12] | GI50 [13] | GI50 [14] | GI50 [15] | GI50 [16] | GI50 [17] | GI50 [18] | GI50 [19]
1 | CCOC(=O)c1nc2cc(Cl)ccc2[nH]c1=O | > 100 µM (inactive) | > 100 µM (inactive) | > 100 µM (inactive) | > 100 µM (inactive) | > 100 µM (inactive) | > 100 µM (inactive) | > 100 µM (inactive) | > 100 µM (inactive) | > 100 µM (inactive) | > 100 µM (inactive) | > 100 µM (inactive) | > 100 µM (inactive) | > 100 µM (inactive) | > 100 µM (inactive) | > 100 µM (inactive) | > 100 µM (inactive) | > 100 µM (inactive) | > 100 µM (inactive) | > 100 µM (inactive)
2 | CC[C@@]1(O)C(=O)OCc2c1cc1n(c2=O)Cc2c-1nc1ccc(O)cc1c2CC[Si](C)(C)C | < 0.001 µM (active) | < 0.001 µM (active) | 0.016 µM (active) | 0.0514 µM (active) | 0.141 µM (active) | 0.00766 µM (active) | 0.00839 µM (active) | < 0.001 µM (active) | 0.0194 µM (active) | < 0.001 µM (active) | < 0.001 µM (active) | 0.0489 µM (active) | 0.1 µM (active) | 0.00497 µM (active) | < 0.001 µM (active) | 0.187 µM (active) | 0.0291 µM (active) | 0.00279 µM (active) | < 0.001 µM (active)
3 | COC1=CC(=O)C(C2CC(=O)c3c(O)cc(O)cc3O2)=CC1=O (stereo unspecified) | 18 µM (inactive) | 15.9 µM (inactive) | 19.1 µM (inactive) | 17.3 µM (inactive) | 16.5 µM (inactive) | 16.2 µM (inactive) | 5.86 µM (inactive) | 16.3 µM (inactive) | 19.4 µM (inactive) | 20.7 µM (inactive) | 5.74 µM (inactive) | 21.7 µM (inactive) | 17.4 µM (inactive) | 18 µM (inactive) | 13.1 µM (inactive) | 12.2 µM (inactive) | 17.6 µM (inactive) | 19.1 µM (inactive) | 25 µM (inactive)
4 | O=CC1OC(=O)c2cc(O)c(O)c(O)c2-c2c(cc(O)c(O)c2O)C(=O)OC1C1OC(=O)c2cc(O)c(O)c(O)c2-c2c(O)c(O)c3oc(=O)c4c(c(O)c(O)c5oc(=O)c2c3c54)-c2c(cc(O)c(O)c2O)C(=O)OCC1O (stereo unspecified) | 12.1 µM (inactive) | 35.2 µM (inactive) | 94.4 µM (inactive) | 20.3 µM (inactive) | 38.2 µM (inactive) | 22.3 µM (inactive) | 26.7 µM (inactive) | 11.2 µM (inactive) | 32.4 µM (inactive) | – | 39.7 µM (inactive) | 36.8 µM (inactive) | > 100 µM (inactive) | 23.4 µM (inactive) | 18.7 µM (inactive) | 13.9 µM (inactive) | 14.2 µM (inactive) | 57 µM (inactive) | 72.3 µM (inactive)
5 | CC1CCC2(CC1)N=C1CCC(C)CC1C1(CCC(C)CC1)N2 (stereo unspecified) | > 100 µM (inactive) | > 100 µM (inactive) | > 100 µM (inactive) | > 100 µM (inactive) | 41.2 µM (inactive) | > 100 µM (inactive) | 30.4 µM (inactive) | > 100 µM (inactive) | > 100 µM (inactive) | > 100 µM (inactive) | 50.8 µM (inactive) | > 100 µM (inactive) | > 100 µM (inactive) | > 100 µM (inactive) | > 100 µM (inactive) | > 100 µM (inactive) | > 100 µM (inactive) | > 100 µM (inactive) | > 100 µM (inactive)
6 | O=C(Nc1ccc(Cl)cc1)NS(=O)(=O)c1coc2cc(F)ccc2c1=O | > 100 µM (inactive) | 16.4 µM (inactive) | > 100 µM (inactive) | 92 µM (inactive) | > 100 µM (inactive) | 30.6 µM (inactive) | 19.7 µM (inactive) | > 100 µM (inactive) | > 100 µM (inactive) | 87.7 µM (inactive) | 95.9 µM (inactive) | > 100 µM (inactive) | 52.6 µM (inactive) | 86.3 µM (inactive) | > 100 µM (inactive) | > 100 µM (inactive) | > 100 µM (inactive) | > 100 µM (inactive) | > 100 µM (inactive)
7 | CCOc1ccccc1NC(=O)C(=O)C(/C(=N/N)C(=O)OC)c1nc2ccc([N+](=O)[O-])cc2nc1O (stereo unspecified) | > 100 µM (inactive) | – | > 100 µM (inactive) | > 100 µM (inactive) | > 100 µM (inactive) | > 100 µM (inactive) | > 100 µM (inactive) | > 100 µM (inactive) | > 100 µM (inactive) | > 100 µM (inactive) | > 100 µM (inactive) | > 100 µM (inactive) | > 100 µM (inactive) | – | > 100 µM (inactive) | > 100 µM (inactive) | > 100 µM (inactive) | > 100 µM (inactive) | –
8 | CCOC(=O)CCC(NC(=O)c1ccc(OCc2nc3ccccc3n3cccc23)cc1)C(=O)OCC (stereo unspecified) | > 100 µM (inactive) | 54.5 µM (inactive) | > 100 µM (inactive) | 4.83 µM (inactive) | 26.6 µM (inactive) | 80.4 µM (inactive) | 16.5 µM (inactive) | 42.8 µM (inactive) | > 100 µM (inactive) | 46.8 µM (inactive) | 9.62 µM (inactive) | > 100 µM (inactive) | > 100 µM (inactive) | > 100 µM (inactive) | 74.3 µM (inactive) | > 100 µM (inactive) | 59.7 µM (inactive) | 36.6 µM (inactive) | 55.5 µM (inactive)
9 | CN1CCc2c([nH]c3ccccc23)C1 | > 100 µM (inactive) | > 100 µM (inactive) | 29.4 µM (inactive) | > 100 µM (inactive) | > 100 µM (inactive) | > 100 µM (inactive) | > 100 µM (inactive) | > 100 µM (inactive) | > 100 µM (inactive) | – | > 100 µM (inactive) | > 100 µM (inactive) | > 100 µM (inactive) | > 100 µM (inactive) | > 100 µM (inactive) | > 100 µM (inactive) | > 100 µM (inactive) | > 100 µM (inactive) | > 100 µM (inactive)
10 | COc1ccc2oc(=O)cc(C)c2c1 | > 100 µM (inactive) | > 100 µM (inactive) | > 100 µM (inactive) | > 100 µM (inactive) | > 100 µM (inactive) | > 100 µM (inactive) | > 100 µM (inactive) | > 100 µM (inactive) | > 100 µM (inactive) | > 100 µM (inactive) | > 100 µM (inactive) | > 100 µM (inactive) | > 100 µM (inactive) | 91.4 µM (inactive) | > 100 µM (inactive) | > 100 µM (inactive) | > 100 µM (inactive) | > 100 µM (inactive) | > 100 µM (inactive)
11 | CCOC(=O)c1cc(C2CCN(c3ccccc3)C2=O)c(C(=O)/C=C(/C)N)[nH]1 (stereo unspecified) | 21.3 µM (inactive) | 40.6 µM (inactive) | 17.6 µM (inactive) | > 100 µM (inactive) | 39.5 µM (inactive) | > 100 µM (inactive) | 68.2 µM (inactive) | 28 µM (inactive) | 20.5 µM (inactive) | – | > 100 µM (inactive) | 44 µM (inactive) | > 100 µM (inactive) | 49.2 µM (inactive) | 10.2 µM (inactive) | 56.4 µM (inactive) | 42.5 µM (inactive) | 37.9 µM (inactive) | 21.3 µM (inactive)
12 | c1ncc(C23C4C5C6C4C2C6C53)[nH]1 (stereo unspecified) | > 100 µM (inactive) | > 100 µM (inactive) | > 100 µM (inactive) | > 100 µM (inactive) | > 100 µM (inactive) | > 100 µM (inactive) | > 100 µM (inactive) | > 100 µM (inactive) | > 100 µM (inactive) | > 100 µM (inactive) | > 100 µM (inactive) | > 100 µM (inactive) | > 100 µM (inactive) | > 100 µM (inactive) | > 100 µM (inactive) | > 100 µM (inactive) | > 100 µM (inactive) | > 100 µM (inactive) | > 100 µM (inactive)
13 | c1coc(-c2nccc3c2[nH]c2ccccc23)c1 | > 100 µM (inactive) | > 100 µM (inactive) | > 100 µM (inactive) | > 100 µM (inactive) | > 100 µM (inactive) | > 100 µM (inactive) | > 100 µM (inactive) | > 100 µM (inactive) | 29.1 µM (inactive) | > 100 µM (inactive) | > 100 µM (inactive) | > 100 µM (inactive) | > 100 µM (inactive) | – | > 100 µM (inactive) | > 100 µM (inactive) | > 100 µM (inactive) | > 100 µM (inactive) | > 100 µM (inactive)
14 | Clc1cc(Cl)cc(/C=N/C23CC4CC(CC(C4)C2)C3)c1 | > 10 µM (inactive) | > 10 µM (inactive) | > 10 µM (inactive) | > 10 µM (inactive) | > 10 µM (inactive) | > 10 µM (inactive) | > 10 µM (inactive) | > 10 µM (inactive) | > 10 µM (inactive) | > 10 µM (inactive) | > 10 µM (inactive) | > 10 µM (inactive) | > 10 µM (inactive) | – | > 10 µM (inactive) | > 10 µM (inactive) | > 10 µM (inactive) | > 10 µM (inactive) | > 10 µM (inactive)
15 | Oc1ccc(-c2nc(-c3cccnc3)c(-c3ccc(F)cc3)[nH]2)cc1 | 28.6 µM (inactive) | 20.5 µM (inactive) | 17.5 µM (inactive) | 18.2 µM (inactive) | 16.7 µM (inactive) | 16.2 µM (inactive) | 16 µM (inactive) | 12.5 µM (inactive) | 21.5 µM (inactive) | – | 16.9 µM (inactive) | 19 µM (inactive) | 17.9 µM (inactive) | > 10 µM (inactive) | 22.9 µM (inactive) | 18.9 µM (inactive) | 17.7 µM (inactive) | 17.6 µM (inactive) | 25.2 µM (inactive)
